# Legend:
# Typhlodromus pyri [1] = test: LR50; higher = less toxic; conditions: acute; mortality
# Typhlodromus pyri [2] = conditions: chronic/long-term; reproduction
# Daphnia magna = conditions: chronic/long-term; duration: 21 days; other
# Colinus virginianus = conditions: for LD50: acute, oral, mortality
# Tagia sp. = conditions: chronic/long-term; duration: 56 days; reproduction
# Apis mellifera = conditions: acute, mortality
# Bibionidae = conditions: chronic/long-term; duration: 28 days; other
structure (smiles),measurement,setting,value
C#CCOC(=O)[C@@H](C)Oc1ccc(Oc2ncc(Cl)cc2F)cc1 [Clodinafop-propargyl],LR50,Typhlodromus pyri [1],> 90 g/ha
same,NOEC,Typhlodromus pyri [2],90 g/ha
same,NOEC,Daphnia magna,0.23 mg/L
same,LD50,"Rattus norvegicus; acute, oral, mortality",> 1390 mg/kg-day
same,NOAEL,"Rattus norvegicus; chronic, duration: 2 years, clinical chemistry",0.03 mg/kg-day
same,NOAEL,"Rattus norvegicus; developmental, development",5 mg/kg-day
same,NOAEL,"Rattus norvegicus; reproduction developmental, body weight",3.4 mg/kg-day
same,LD50,"Colinus virginianus; duration: 5 days, diet",> 1040 mg/kg-day
same,LD50,Colinus virginianus,1460 mg/kg-day
same,NOEC,Colinus virginianus; reproduction developmental,48.9 mg/kg-day
same,NOEC,Tagia sp.,5 mg/kg
same,LD50,Apis mellifera; dermal,> 271 µg/piece
same,LD50,"Apis mellifera; oral, unspecified",> 104 µg/piece
same,LC50,"Lepomis macrochirus; acute, duration: 96 hours, mortality",0.21 mg/L
same,NOEC,"Lepomis macrochirus; chronic/long-term, duration: 33 days, other",0.024 mg/L
same,NOEC,Bibionidae,1.2 mg/L

# From EPA's ToxValDB 9.5 (doi:10.2903/j.efsa.2018.5467)
